Data: PubChem BioAssay AID504936 (NMMLSC, 2011)
Active and inactive are the calls of the source.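 The calls were made as follows: active = cytostatic effect above 60% on a scale from DMSO controls to rapamycin controls, holding yeast in G1/G0 phase; inactive = the rest.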

tested on: S. cerevisiae BY4741 DNA content flow cytometry, cell cycle; test: S. cerevisiae cell cycle DNA content profile – flow cytometry (AID 504936); conditions: at 10 µM; stronger effect = higher value;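 also: yeast exposed to compound for three five or seven days before fixation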

SMILES | G1/G0 population
[O-][n+]1c2ccccc2[n+]([O-])c2cc(O)ccc21 | 48.4% (inactive)
CC(C)OC(=O)c1ccc2nc3ccccc3nc2c1 | 78.1% (inactive)
O=c1[nH]c(O)c(C=Nc2ccc(F)c(Cl)c2)c(=O)[nH]1 | 78.7% (inactive)
C=CCSc1ccc(-c2ccc([N+](=O)[O-])cc2)o1 | 65.8% (inactive)
O=C(Nc1ccc2nc3ccccc3nc2c1)c1ccc(Br)cc1 | 77.7% (inactive)
COc1ccc2nc3ccccc3nc2c1NC(=O)c1ccccc1Cl | 79.9% (inactive)
C#CCSc1ccc(-c2ccc([N+](=O)[O-])cc2)o1 | 79.6% (inactive)
COc1ccc2c(c1)c1nnc(SC)nc1n2C | 58.9% (inactive)
CSc1nnc(-c2ccc([N+](=O)[O-])cc2)o1 | 79.2% (inactive)
Cc1cc(C)cc(NC(=O)CN2CCN(c3ccccn3)CC2)c1 | 73.5% (inactive)
O=C(O)c1cnc2ccccc2n1 | 78.8% (inactive)
O=C(Nc1cccc(Cl)c1)Nc1ccc2nccnc2c1 | 77.4% (inactive)
O=C(/C=C/c1ccccc1)NC(=S)NNC(=O)Cc1cccs1 | 80.1%
CCC(=Nc1ccccc1O)C1=C(O)CC(c2ccccc2)CC1=O (stereo not given) | 74.7% (inactive)
N#CC(c1nc2ccccc2nc1N1CCCC1)S(=O)(=O)c1ccccc1 (stereo not given) | 75.8% (inactive)
Cn1c(O)c(C(=Nc2ccc(F)cc2)c2ccccc2Cl)c(=O)n(C)c1=O | 72% (inactive)
COc1ccc2cc(C3CC(c4ccco4)=NN3S(=O)(=O)c3ccccc3)c(Cl)nc2c1 (stereo not given) | 79% (inactive)
C[C@@]12C(=O)OC(=O)[C@]1(C)C1CCC2O1 | 61.6% (inactive)
CCn1c2ccccc2c2n[nH]c(=S)nc21 | 80% (inactive)
CC(C)(C)n1nc(-c2ccc(F)cc2)c2c(N)ncnc21 | 70.5% (inactive)
CC(C)CSc1nnc2c3ccccc3n(C)c2n1 | 75% (inactive)
C=CCOn1c(=O)c(-c2cccs2)[n+]([O-])c2ccccc21 | 73.2% (inactive)
CCN(CC)C(=O)c1cccc2nc3ccccc3nc12 | 42.7% (inactive)
C[n+]1c2ccccc2nc2ccc(NCCO)cc21 | 77.6% (inactive)
Cc1ccccc1NC(=O)c1cccc2nc3ccccc3nc12 | 72.9% (inactive)
CCN(CC)C(=O)CSc1nnc(-c2cccc(OC)c2)o1 | 70.5% (inactive)
O=C(/C=C/c1cccs1)NC(=S)NNC(=O)Cc1cccs1 | 73% (inactive)
N#CCc1nn(-c2ccccc2)c2ncnc(N)c12 | 78.8% (inactive)

SMILES | G1/G0 population
c1ccc2nc3ccccc3nc2c1 | 71.8% (inactive)
COc1cccc2nc3cc(C)c(C)cc3nc12 | 64.8% (inactive)
CC(C)(C)Nc1ncnc2c1cnn2-c1ccccc1 | 62.9% (inactive)
OCC[n+]1c2ccccc2nc2ccc(N3CCOCC3)cc21 | 74.9% (inactive)
CCCCCNC(=O)C(=O)C1C(=O)Nc2ccccc21 (stereo not given) | 71.4% (inactive)
CC(=O)Nc1ccc2nc3ccccc3nc2c1 | 72.9% (inactive)
Oc1cccc2nc3ccccc3nc12 | 43% (inactive)
FC(F)(F)c1nc2cc3nc4ccccc4[nH]c3cc2n1 | 71.5% (inactive)
O=C1c2c(O)ccc(O)c2C(=O)c2c(NCCNCCO)ccc(NCCNCCO)c21 | 0.072% (inactive)
COc1ccc2nc3ccccc3[n+]([O-])c2c1 | 69.4% (inactive)
COc1ccc2nc3ccccc3nc2c1N | 56.9% (inactive)
CCN(CC)C(=O)c1ccc2nc3ccccc3nc2c1 | 78.8% (inactive)
CNc1ccc2nc3ccccc3[n+](C)c2c1 | 52.8% (inactive)
CC(C)(C)n1nc(-c2ccc(Cl)cc2)c2c(N)ncnc21 | 70.8% (inactive)
CC(C)OC(=O)CSc1nnc(-c2ccc(Cl)cc2Cl)o1 | 79.6% (inactive)
COc1ccc2nc3ccccc3nc2c1 | 65.9% (inactive)
CCc1nc(NC(C)(C)C)c2cnn(-c3ccccc3)c2n1 | 75.3% (inactive)
O=C(c1cccc2nc3ccccc3nc12)N1CCOCC1 | 76.5% (inactive)
O=C(CN1CCN(c2ccccn2)CC1)Nc1ccccc1F | 74% (inactive)
Nc1cc2nc3ccccc3nc2cc1N | 79% (inactive)
O=C(OCc1c(F)cccc1Cl)c1cnc2ccccc2n1 | 73.8% (inactive)
Cc1cc(C)c2[nH]c3nc(SCC(=O)O)nnc3c2c1 | 79.8% (inactive)
c1ccc2[nH]c3cc4ncnc4cc3nc2c1 | 58.6% (inactive)
Cc1ccc(-c2nn(C(C)(C)C)c3ncnc(N)c23)cc1 | 70.3% (inactive)
Cc1cc2nc3ccc(N(C)C)cc3nc2cc1N | 67.3% (inactive)
Cn1c(=O)[nH]c2nncnc2c1=O | 73.1% (inactive)
CN(C)CCNc1ncnc2c1cnn2-c1ccc(Cl)cc1 | 52.4% (inactive)

same assay, conditions: measured here: G2 phase fraction; at 10 µM; stronger effect = lower value

SMILES | G2 population
[O-][n+]1c2ccccc2[n+]([O-])c2cc(O)ccc21 | 8.17%
CC(C)OC(=O)c1ccc2nc3ccccc3nc2c1 | 12.4%
O=c1[nH]c(O)c(C=Nc2ccc(F)c(Cl)c2)c(=O)[nH]1 | 12.7%
C=CCSc1ccc(-c2ccc([N+](=O)[O-])cc2)o1 | 10.1%
O=C(Nc1ccc2nc3ccccc3nc2c1)c1ccc(Br)cc1 | 12.5%
COc1ccc2nc3ccccc3nc2c1NC(=O)c1ccccc1Cl | 12.2%
C#CCSc1ccc(-c2ccc([N+](=O)[O-])cc2)o1 | 11%
COc1ccc2c(c1)c1nnc(SC)nc1n2C | 11.7%
CSc1nnc(-c2ccc([N+](=O)[O-])cc2)o1 | 10.8%
Cc1cc(C)cc(NC(=O)CN2CCN(c3ccccn3)CC2)c1 | 12.4%
O=C(O)c1cnc2ccccc2n1 | 12.5%
O=C(Nc1cccc(Cl)c1)Nc1ccc2nccnc2c1 | 12%
O=C(/C=C/c1ccccc1)NC(=S)NNC(=O)Cc1cccs1 | 3.91%
CCC(=Nc1ccccc1O)C1=C(O)CC(c2ccccc2)CC1=O (stereo not given) | 12.1%
N#CC(c1nc2ccccc2nc1N1CCCC1)S(=O)(=O)c1ccccc1 (stereo not given) | 11.9%
Cn1c(O)c(C(=Nc2ccc(F)cc2)c2ccccc2Cl)c(=O)n(C)c1=O | 14.8%
COc1ccc2cc(C3CC(c4ccco4)=NN3S(=O)(=O)c3ccccc3)c(Cl)nc2c1 (stereo not given) | 12.7%
C[C@@]12C(=O)OC(=O)[C@]1(C)C1CCC2O1 | 9.56%
CCn1c2ccccc2c2n[nH]c(=S)nc21 | 11.1%
CC(C)(C)n1nc(-c2ccc(F)cc2)c2c(N)ncnc21 | 3.33%
CC(C)CSc1nnc2c3ccccc3n(C)c2n1 | 12%
C=CCOn1c(=O)c(-c2cccs2)[n+]([O-])c2ccccc21 | 13.9%
CCN(CC)C(=O)c1cccc2nc3ccccc3nc12 | 8.88%
C[n+]1c2ccccc2nc2ccc(NCCO)cc21 | 7.26%
Cc1ccccc1NC(=O)c1cccc2nc3ccccc3nc12 | 12.2%
CCN(CC)C(=O)CSc1nnc(-c2cccc(OC)c2)o1 | 12.1%
O=C(/C=C/c1cccs1)NC(=S)NNC(=O)Cc1cccs1 | 11.1%
N#CCc1nn(-c2ccccc2)c2ncnc(N)c12 | 10.6%

SMILES | G2 population
c1ccc2nc3ccccc3nc2c1 | 13.2%
COc1cccc2nc3cc(C)c(C)cc3nc12 | 11%
CC(C)(C)Nc1ncnc2c1cnn2-c1ccccc1 | 10.3%
OCC[n+]1c2ccccc2nc2ccc(N3CCOCC3)cc21 | 12.4%
CCCCCNC(=O)C(=O)C1C(=O)Nc2ccccc21 (stereo not given) | 6.62%
CC(=O)Nc1ccc2nc3ccccc3nc2c1 | 11.9%
Oc1cccc2nc3ccccc3nc12 | 9.27%
FC(F)(F)c1nc2cc3nc4ccccc4[nH]c3cc2n1 | 10.6%
O=C1c2c(O)ccc(O)c2C(=O)c2c(NCCNCCO)ccc(NCCNCCO)c21 | 0%
COc1ccc2nc3ccccc3[n+]([O-])c2c1 | 13.5%
COc1ccc2nc3ccccc3nc2c1N | 10.2%
CCN(CC)C(=O)c1ccc2nc3ccccc3nc2c1 | 11.3%
CNc1ccc2nc3ccccc3[n+](C)c2c1 | 8.35%
CC(C)(C)n1nc(-c2ccc(Cl)cc2)c2c(N)ncnc21 | 0.23%
CC(C)OC(=O)CSc1nnc(-c2ccc(Cl)cc2Cl)o1 | 12.9%
COc1ccc2nc3ccccc3nc2c1 | 12.7%
CCc1nc(NC(C)(C)C)c2cnn(-c3ccccc3)c2n1 | 13.1%
O=C(c1cccc2nc3ccccc3nc12)N1CCOCC1 | 12.1%
O=C(CN1CCN(c2ccccn2)CC1)Nc1ccccc1F | 12.1%
Nc1cc2nc3ccccc3nc2cc1N | 9.84%
O=C(OCc1c(F)cccc1Cl)c1cnc2ccccc2n1 | 13.8%
Cc1cc(C)c2[nH]c3nc(SCC(=O)O)nnc3c2c1 | 10.9%
c1ccc2[nH]c3cc4ncnc4cc3nc2c1 | 8.26%
Cc1ccc(-c2nn(C(C)(C)C)c3ncnc(N)c23)cc1 | 9.27%
Cc1cc2nc3ccc(N(C)C)cc3nc2cc1N | 5.62%
Cn1c(=O)[nH]c2nncnc2c1=O | 12%
CN(C)CCNc1ncnc2c1cnn2-c1ccc(Cl)cc1 | 10.3%

same assay, conditions: measured here: apoptotic fraction; at 10 µM

SMILES | apoptotic population
[O-][n+]1c2ccccc2[n+]([O-])c2cc(O)ccc21 | 37.1%
CC(C)OC(=O)c1ccc2nc3ccccc3nc2c1 | 7.62%
O=c1[nH]c(O)c(C=Nc2ccc(F)c(Cl)c2)c(=O)[nH]1 | 7.01%
C=CCSc1ccc(-c2ccc([N+](=O)[O-])cc2)o1 | 21.7%
O=C(Nc1ccc2nc3ccccc3nc2c1)c1ccc(Br)cc1 | 8.37%
COc1ccc2nc3ccccc3nc2c1NC(=O)c1ccccc1Cl | 6.11%
C#CCSc1ccc(-c2ccc([N+](=O)[O-])cc2)o1 | 8.02%
COc1ccc2c(c1)c1nnc(SC)nc1n2C | 27.7%
CSc1nnc(-c2ccc([N+](=O)[O-])cc2)o1 | 8.39%
Cc1cc(C)cc(NC(=O)CN2CCN(c3ccccn3)CC2)c1 | 12.2%
O=C(O)c1cnc2ccccc2n1 | 7.02%
O=C(Nc1cccc(Cl)c1)Nc1ccc2nccnc2c1 | 8.93%
O=C(/C=C/c1ccccc1)NC(=S)NNC(=O)Cc1cccs1 | 12.7%
CCC(=Nc1ccccc1O)C1=C(O)CC(c2ccccc2)CC1=O (stereo not given) | 12%
N#CC(c1nc2ccccc2nc1N1CCCC1)S(=O)(=O)c1ccccc1 (stereo not given) | 9.82%
Cn1c(O)c(C(=Nc2ccc(F)cc2)c2ccccc2Cl)c(=O)n(C)c1=O | 11.1%
COc1ccc2cc(C3CC(c4ccco4)=NN3S(=O)(=O)c3ccccc3)c(Cl)nc2c1 (stereo not given) | 6.88%
C[C@@]12C(=O)OC(=O)[C@]1(C)C1CCC2O1 | 24.9%
CCn1c2ccccc2c2n[nH]c(=S)nc21 | 6.8%
CC(C)(C)n1nc(-c2ccc(F)cc2)c2c(N)ncnc21 | 14.9%
CC(C)CSc1nnc2c3ccccc3n(C)c2n1 | 11.2%
C=CCOn1c(=O)c(-c2cccs2)[n+]([O-])c2ccccc21 | 11.3%
CCN(CC)C(=O)c1cccc2nc3ccccc3nc12 | 46.6%
C[n+]1c2ccccc2nc2ccc(NCCO)cc21 | 8.98%
Cc1ccccc1NC(=O)c1cccc2nc3ccccc3nc12 | 13.2%
CCN(CC)C(=O)CSc1nnc(-c2cccc(OC)c2)o1 | 15.5%
O=C(/C=C/c1cccs1)NC(=S)NNC(=O)Cc1cccs1 | 14%
N#CCc1nn(-c2ccccc2)c2ncnc(N)c12 | 8.22%

SMILES | apoptotic population
c1ccc2nc3ccccc3nc2c1 | 12.3%
COc1cccc2nc3cc(C)c(C)cc3nc12 | 21.7%
CC(C)(C)Nc1ncnc2c1cnn2-c1ccccc1 | 25%
OCC[n+]1c2ccccc2nc2ccc(N3CCOCC3)cc21 | 11%
CCCCCNC(=O)C(=O)C1C(=O)Nc2ccccc21 (stereo not given) | 20%
CC(=O)Nc1ccc2nc3ccccc3nc2c1 | 12.6%
Oc1cccc2nc3ccccc3nc12 | 44%
FC(F)(F)c1nc2cc3nc4ccccc4[nH]c3cc2n1 | 12.3%
O=C1c2c(O)ccc(O)c2C(=O)c2c(NCCNCCO)ccc(NCCNCCO)c21 | 99.9%
COc1ccc2nc3ccccc3[n+]([O-])c2c1 | 15%
COc1ccc2nc3ccccc3nc2c1N | 29.3%
CCN(CC)C(=O)c1ccc2nc3ccccc3nc2c1 | 8.05%
CNc1ccc2nc3ccccc3[n+](C)c2c1 | 36.6%
CC(C)(C)n1nc(-c2ccc(Cl)cc2)c2c(N)ncnc21 | 12.6%
CC(C)OC(=O)CSc1nnc(-c2ccc(Cl)cc2Cl)o1 | 6.08%
COc1ccc2nc3ccccc3nc2c1 | 18.8%
CCc1nc(NC(C)(C)C)c2cnn(-c3ccccc3)c2n1 | 9.99%
O=C(c1cccc2nc3ccccc3nc12)N1CCOCC1 | 9.75%
O=C(CN1CCN(c2ccccn2)CC1)Nc1ccccc1F | 12%
Nc1cc2nc3ccccc3nc2cc1N | 9%
O=C(OCc1c(F)cccc1Cl)c1cnc2ccccc2n1 | 10.5%
Cc1cc(C)c2[nH]c3nc(SCC(=O)O)nnc3c2c1 | 7.85%
c1ccc2[nH]c3cc4ncnc4cc3nc2c1 | 30.4%
Cc1ccc(-c2nn(C(C)(C)C)c3ncnc(N)c23)cc1 | 16.3%
Cc1cc2nc3ccc(N(C)C)cc3nc2cc1N | 20.3%
Cn1c(=O)[nH]c2nncnc2c1=O | 12.7%
CN(C)CCNc1ncnc2c1cnn2-c1ccc(Cl)cc1 | 35.5%
